Each structure is given as a SMILES string.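 Briefly, cells in 96-well plates were exposed to five compound concentrations for 48 h, and endpoints were estimated by linear interpolation. GI50 marks 50% less growth.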 Calls of active or inactive are those of the source. Rule as the data show it: active = GI50 up to about 1.1 µM and inactive = higher. Bounds are passed on as bounds.

Some test systems named below: CAKI-1; SK-OV-3; HL-60; CCRF-CEM; SK-MEL-2; XF498; NCI-H460; HOP-18; SF-295; HCT-15; RXF 393; NCI-H522; NCI-H226; SNB-19; K562; LXFL 529; TK-10; BT-549; MDA-MB-231; PC-3.
Common to all, as to assay: NCI anticancer screen, dose series, 48 h

`O=c1ccn([C@@H]2C=C(CO)[C@@H](O)[C@H]2O)c(=O)[nH]1`: the GI50 is > 625 µM (inactive) with CAKI-1; > 625 µM (inactive) with SK-OV-3; > 625 µM (inactive) in the assay with HL-60; > 625 µM (inactive) in the assay with CCRF-CEM; > 625 µM (inactive) in the assay on SK-MEL-2; < 0.0625 µM (active) in the assay on XF498. Further, the GI50 with NCI-H460 was > 625 µM (inactive); in the assay on HOP-18, > 625 µM (inactive); with SF-295, > 625 µM (inactive); in the assay on HCT-15, > 625 µM; in the assay with RXF 393, > 625 µM (inactive); in the assay with NCI-H522 it was > 625 µM (inactive). For the same molecule, the GI50 in the assay on NCI-H226 and in the assay with SNB-19 was > 625 µM (inactive) throughout.

Turning to `COc1ccc(C2COc3cc(OC(C)=O)c(OC(C)=O)cc3C2)cc1` (stereo not drawn), the GI50 in the assay with CAKI-1 was 23 µM (inactive); in the assay on SK-OV-3, 40.1 µM (inactive); in the assay with HL-60, 2.54 µM (inactive); in the assay with K562, 16.3 µM (inactive); in the assay with CCRF-CEM, 3.09 µM (inactive); with SK-MEL-2 it was 31.7 µM (inactive). Also, the GI50 in the assay on XF498 is 8.49 µM (inactive); in the assay with NCI-H460 it was 13.9 µM (inactive); with HOP-18, 2.78 µM (inactive); in the assay with SF-295, 14.1 µM (inactive); in the assay on HCT-15 it was 20.3 µM; in the assay with RXF 393 it was 15.5 µM (inactive). Further, the GI50 is 1.97 µM (inactive) in the assay on NCI-H522, 24.3 µM (inactive) with NCI-H226 and 7.74 µM (inactive) in the assay on SNB-19.

On to `CCCN1C(=O)/C(=C(/O)C(=O)OCC)C(c2ccc(OC)c(OC)c2)C1=O` (stereo not drawn), for which the GI50 with CAKI-1, with SK-OV-3, in the assay with HL-60, in the assay with K562, with CCRF-CEM and with SK-MEL-2 was > 100 µM (inactive) in each case. The GI50 with XF498 is > 100 µM (inactive); in the assay with NCI-H460, > 31.6 µM (inactive); in the assay on HOP-18 it was > 100 µM (inactive); with SF-295, > 100 µM (inactive); with HCT-15 it was > 100 µM; with RXF 393, > 100 µM (inactive). Moreover, the GI50 with NCI-H522, in the assay on NCI-H226 and with SNB-19 was > 100 µM (inactive) each time.

Take `COc1ccc(/C=c2\sc3n(c2=O)CCN=3)cc1`: the GI50 in the assay with SK-OV-3 is > 100 µM (inactive); in the assay with HL-60, 69.3 µM (inactive); in the assay on K562, 43.7 µM (inactive); in the assay with LXFL 529, > 100 µM (inactive); in the assay with CCRF-CEM it was 96.2 µM (inactive); with SK-MEL-2, > 100 µM (inactive). Also, the GI50 in the assay on NCI-H460 is > 100 µM (inactive); with TK-10, > 100 µM (inactive); in the assay with HOP-18, 88.3 µM (inactive); in the assay on SF-295 it was > 100 µM (inactive); in the assay with HCT-15 it was > 100 µM; in the assay with RXF 393, 31.1 µM (inactive). Also, the GI50 in the assay on NCI-H522 was 84.5 µM (inactive).

In the case of `CCOC(=O)CN(CC)C(=O)NC12CC3CC(CC(C3)C1)C2`, the GI50 with CAKI-1 is 169 µM (inactive); in the assay with SK-OV-3, 218 µM (inactive); in the assay on HL-60, 103 µM (inactive); with K562, 180 µM (inactive); in the assay on CCRF-CEM it was 211 µM (inactive); with SK-MEL-2, 131 µM (inactive). In addition, the GI50 in the assay on XF498 was 125 µM (inactive); in the assay on NCI-H460, 200 µM (inactive); with HOP-18, 148 µM (inactive); in the assay with SF-295 it was 230 µM (inactive); in the assay on HCT-15 it was 220 µM; in the assay on RXF 393 it was 173 µM (inactive). Further, the results for the GI50 in the assay on NCI-H522, in the assay on NCI-H226 and in the assay with SNB-19 were 155 µM (inactive), 160 µM (inactive) and 339 µM (inactive), respectively.

Take `CN1COCN/C1=N/C#N`: the GI50 in the assay with CAKI-1, in the assay on SK-OV-3, in the assay with HL-60, in the assay on K562, with LXFL 529 and in the assay on CCRF-CEM was > 100 µM (inactive) in each case. Besides, the GI50 with SK-MEL-2 was > 100 µM (inactive); in the assay on XF498, > 100 µM (inactive); in the assay with NCI-H460 it was > 100 µM (inactive); in the assay on HOP-18, > 100 µM (inactive); in the assay on SF-295 it was > 100 µM (inactive); in the assay on HCT-15, > 100 µM. The GI50 with NCI-H522, in the assay on NCI-H226 and with SNB-19 was > 100 µM (inactive) throughout.

Turning to `COc1ccccc1OCC(COC(=O)Nc1ccccc1)OC(=O)Nc1ccccc1` (stereo not drawn), the GI50 with CAKI-1 was 20.3 µM (inactive); with SK-OV-3, > 100 µM (inactive); in the assay on HL-60, 40.6 µM (inactive); with K562, > 100 µM (inactive); with LXFL 529 it was 27.5 µM (inactive); in the assay on CCRF-CEM, > 100 µM (inactive). The GI50 with SK-MEL-2 is 23.1 µM (inactive); in the assay on XF498 it was 60.4 µM (inactive); in the assay on NCI-H460, 48.5 µM (inactive); in the assay on TK-10, > 100 µM (inactive); in the assay with HOP-18, 59.3 µM (inactive); in the assay with SF-295, 39.1 µM (inactive). In addition, the GI50 is > 100 µM in the assay with HCT-15; 12.8 µM (inactive) in the assay with RXF 393; 49.4 µM (inactive) with NCI-H522; 36.2 µM (inactive) in the assay on NCI-H226; 31.5 µM (inactive) in the assay with SNB-19.

For the molecule `CCOC(=O)c1ccc(N(CCOS(C)(=O)=O)CCOS(C)(=O)=O)cc1`, the GI50 in the assay on BT-549 was 40.6 µM (inactive); with CAKI-1, 12.6 µM (inactive); with HL-60 it was 39.9 µM (inactive); in the assay with K562 it was 24.3 µM (inactive); with CCRF-CEM it was 23.9 µM (inactive); in the assay on SK-MEL-2, 55.2 µM (inactive). The GI50 was 37 µM (inactive) with NCI-H460; 83.4 µM (inactive) in the assay on TK-10; 91.2 µM (inactive) in the assay with MDA-MB-231; 51.1 µM (inactive) in the assay with SF-295; 40.9 µM with HCT-15; 20 µM (inactive) in the assay with RXF 393. The GI50 in the assay with NCI-H522 was 12.9 µM (inactive); in the assay with SNB-19 it was 90.6 µM (inactive); in the assay with PC-3, 50.7 µM (inactive).

Take `C/C=C1\C[C@@H]2C(OC)Nc3cc(O)c(OC)cc3C(=O)N2C1` (stereo partly drawn): the GI50 was 0.00437 µM (active) in the assay on BT-549; < 0.01 µM (active) with CAKI-1; < 0.01 µM (active) with SK-OV-3; < 0.01 µM (active) with HL-60; < 0.01 µM (active) with K562; 0.00301 µM (active) in the assay with LXFL 529. Moreover, the GI50 in the assay with CCRF-CEM is < 0.01 µM (active); in the assay on SK-MEL-2 it was < 0.01 µM (active); in the assay with NCI-H460 it was < 0.01 µM (active); in the assay with TK-10, < 0.0171 µM (active); in the assay with MDA-MB-231, < 0.01 µM (active); in the assay with HOP-18 it was 0.0213 µM (active). For the same molecule, the GI50 was < 0.01 µM (active) in the assay with SF-295; < 0.01 µM in the assay on HCT-15; < 0.01 µM (active) in the assay on RXF 393; < 0.01 µM (active) in the assay on NCI-H522; 0.0223 µM (active) with NCI-H226; 0.0074 µM (active) in the assay with SNB-19. Also, the GI50 in the assay with PC-3 is < 0.01 µM (active).

In the case of `C[C@H]1O[C@@H](O[C@H]2[C@@H](O)C[C@H](O[C@H]3[C@@H](O)C[C@H](O[C@H]4CC[C@@]5(C)[C@H](CC[C@@H]6[C@@H]5CC[C@]5(C)[C@@H](C7=CC(=O)OC7)CC[C@]65O)C4)O[C@@H]3C)O[C@@H]2C)C[C@H](O)[C@@H]1O` [DIGITOXIN], the GI50 with BT-549 was 0.0189 µM (active); in the assay on CAKI-1, 0.0184 µM (active); in the assay with SK-OV-3, 0.045 µM (active); in the assay on K562 it was < 0.0246 µM (active); in the assay with CCRF-CEM it was < 0.0199 µM (active); in the assay with SK-MEL-2, 0.0641 µM (active). Also, the GI50 in the assay with TK-10 is 0.0252 µM (active); with MDA-MB-231 it was 0.129 µM (active); in the assay on SF-295 it was 0.0258 µM (active); in the assay with HCT-15 it was 0.0305 µM; in the assay on RXF 393, 0.0175 µM (active); in the assay with NCI-H522, < 0.01 µM (active). The GI50 is 0.0635 µM (active) in the assay with NCI-H226, 0.075 µM (active) with SNB-19 and < 0.033 µM (active) in the assay on PC-3.

The values are drawn from ChEMBL document CHEMBL1201862, “PubChem BioAssay data set” (2004).
